From PubChem BioAssay AID1259407 (Chemical Carcinogenesis Research Information System (CCRIS), 2018)
The source made the active and inactive calls. No rule for the calls is given here.

System: CCRIS mutagenicity, Ames/micronucleus/aberration tests
Experiment: CCRIS mutagenicity studies
[1] = Test System: AMES SALMONELLA TYPHIMURIUM, Strain/Indicator: TA98, Metabolic Activation: NONE, Method: STANDARD PLATE
[2] = Test System: AMES SALMONELLA TYPHIMURIUM, Strain/Indicator: TA100, Metabolic Activation: NONE, Method: STANDARD PLATE
[3] = Test System: AMES SALMONELLA TYPHIMURIUM, Strain/Indicator: TA98, Metabolic Activation: NONE, Method: PREINCUBATION
[4] = Test System: AMES SALMONELLA TYPHIMURIUM, Strain/Indicator: TA100, Metabolic Activation: NONE, Method: PREINCUBATION
[5] = Test System: AMES SALMONELLA TYPHIMURIUM, Strain/Indicator: TA98, Metabolic Activation: RAT, LIVER, S-9, AROCLOR 1254, Method: STANDARD PLATE
[6] = Test System: AMES SALMONELLA TYPHIMURIUM, Strain/Indicator: TA100, Metabolic Activation: RAT, LIVER, S-9, AROCLOR 1254, Method: STANDARD PLATE
[7] = Test System: AMES SALMONELLA TYPHIMURIUM, Strain/Indicator: TA1535, Metabolic Activation: NONE, Method: STANDARD PLATE
[8] = Test System: AMES SALMONELLA TYPHIMURIUM, Strain/Indicator: TA1535, Metabolic Activation: RAT, LIVER, S-9, AROCLOR 1254, Method: STANDARD PLATE
[9] = Test System: AMES SALMONELLA TYPHIMURIUM, Strain/Indicator: TA1538, Metabolic Activation: NONE, Method: STANDARD PLATE
[10] = Test System: AMES SALMONELLA TYPHIMURIUM, Strain/Indicator: TA1538, Metabolic Activation: RAT, LIVER, S-9, AROCLOR 1254, Method: STANDARD PLATE
[11] = Test System: AMES SALMONELLA TYPHIMURIUM, Strain/Indicator: TA98, Metabolic Activation: HAMSTER, LIVER, S-9, AROCLOR 1254 (10%), Method: PREINCUBATION
[12] = Test System: AMES SALMONELLA TYPHIMURIUM, Strain/Indicator: TA98, Metabolic Activation: RAT, LIVER, S-9, AROCLOR 1254 (10%), Method: PREINCUBATION
[13] = Test System: AMES SALMONELLA TYPHIMURIUM, Strain/Indicator: TA100, Metabolic Activation: HAMSTER, LIVER, S-9, AROCLOR 1254 (10%), Method: PREINCUBATION
[14] = Test System: AMES SALMONELLA TYPHIMURIUM, Strain/Indicator: TA100, Metabolic Activation: RAT, LIVER, S-9, AROCLOR 1254 (10%), Method: PREINCUBATION
[15] = Test System: AMES SALMONELLA TYPHIMURIUM, Strain/Indicator: TA1535, Metabolic Activation: HAMSTER, LIVER, S-9, AROCLOR 1254 (10%), Method: PREINCUBATION
[16] = Test System: AMES SALMONELLA TYPHIMURIUM, Strain/Indicator: TA1535, Metabolic Activation: NONE, Method: PREINCUBATION
[17] = Test System: AMES SALMONELLA TYPHIMURIUM, Strain/Indicator: TA1535, Metabolic Activation: RAT, LIVER, S-9, AROCLOR 1254 (10%), Method: PREINCUBATION
[18] = Test System: AMES SALMONELLA TYPHIMURIUM, Strain/Indicator: TA1537, Metabolic Activation: HAMSTER, LIVER, S-9, AROCLOR 1254 (10%), Method: PREINCUBATION
[19] = Test System: AMES SALMONELLA TYPHIMURIUM, Strain/Indicator: TA1537, Metabolic Activation: NONE, Method: PREINCUBATION
[20] = Test System: AMES SALMONELLA TYPHIMURIUM, Strain/Indicator: TA1537, Metabolic Activation: RAT, LIVER, S-9, AROCLOR 1254 (10%), Method: PREINCUBATION

`O=C(Nc1cccc(Cl)c1)c1csc([N+](=O)[O-])c1` was tested, and the mutagenic call [1] was “active; positive” and the mutagenic call [2] was “active; positive”.
In the case of `C1=CC23CCCC2(C=C1)O3` (centres undefined), the mutagenic call [1] is reported as “inactive; negative”, the mutagenic call [2] is reported as “active; positive” and the mutagenic call (Test System: AMES SALMONELLA TYPHIMURIUM, Strain/Indicator: TM677/8-AZAGUANINE, Metabolic Activation: NONE, Method: STANDARD PLATE) is reported as “active; positive”.
In the case of `CCC(C)COC(=O)/C=C/c1ccc(N=Cc2ccc(OC)cc2)cc1` (centres undefined), the mutagenic call (Test System: AMES SALMONELLA TYPHIMURIUM, Strain/Indicator: TA98, Metabolic Activation: HAMSTER, LIVER, S-9, AROCLOR 1254 (30%), Method: PREINCUBATION) is reported as “inactive; negative”, the mutagenic call [3] is reported as “inactive; negative” and the mutagenic call (Test System: AMES SALMONELLA TYPHIMURIUM, Strain/Indicator: TA98, Metabolic Activation: RAT, LIVER, S-9, AROCLOR 1254 (30%), Method: PREINCUBATION) is reported as “active; positive”. For the same compound, the mutagenic call (Test System: AMES SALMONELLA TYPHIMURIUM, Strain/Indicator: TA100, Metabolic Activation: HAMSTER, LIVER, S-9, AROCLOR 1254 (30%), Method: PREINCUBATION) was “active; positive”, the mutagenic call [4] was “inactive; negative” and the mutagenic call (Test System: AMES SALMONELLA TYPHIMURIUM, Strain/Indicator: TA100, Metabolic Activation: RAT, LIVER, S-9, AROCLOR 1254 (30%), Method: PREINCUBATION) was “active; positive”.
For `C=Cc1ccccn1`, the mutagenic call (End Point: In vitro chromosomal aberrations, Test System: Chinese hamster lung (CHL/IU) cells, Metabolic Activation: Rat, Liver, S9, Phenobarbital and 5,6-benzoflavone) was “active; positive (structural changes)”, the mutagenic call [1] was “inactive; negative” and the mutagenic call [5] was “inactive; negative”. For the same compound, the mutagenic call [2] was “inactive; negative”, the mutagenic call [6] was “inactive; negative” and the mutagenic call [7] was “inactive; negative”. The mutagenic call [8] was “inactive; negative”, the mutagenic call [9] was “inactive; negative” and the mutagenic call [10] was “inactive; negative”. For the same compound, the mutagenic call (Test System: Ames Salmonella typhimurium, Strain/Indicator: TA98, Metabolic Activation: None, Method: Preincubation) was “inactive; negative”, the mutagenic call (Test System: Ames Salmonella typhimurium, Strain/Indicator: TA98, Metabolic Activation: Rat, Liver, S9, Sodium phenobarbital and 5,6-benzoflavone (10%), Method: Preincubation) was “inactive; negative” and the mutagenic call (Test System: Ames Salmonella typhimurium, Strain/Indicator: TA100, Metabolic Activation: None, Method: Preincubation) was “inactive; negative”. The mutagenic call (Test System: Ames Salmonella typhimurium, Strain/Indicator: TA100, Metabolic Activation: Rat, Liver, S9, Sodium phenobarbital and 5,6-benzoflavone (10%), Method: Preincubation) was “inactive; negative”, the mutagenic call (Test System: Ames Salmonella typhimurium, Strain/Indicator: TA1535, Metabolic Activation: None, Method: Preincubation) was “inactive; negative” and the mutagenic call (Test System: Ames Salmonella typhimurium, Strain/Indicator: TA1535, Metabolic Activation: Rat, Liver, S9, Sodium phenobarbital and 5,6-benzoflavone (10%), Method: Preincubation) was “inactive; negative”. For the same compound, the mutagenic call (Test System: Ames Salmonella typhimurium, Strain/Indicator: TA1537, Metabolic Activation: None, Method: Preincubation) was “inactive; negative”, the mutagenic call (Test System: Ames Salmonella typhimurium, Strain/Indicator: TA1537, Metabolic Activation: Rat, Liver, S9, Sodium phenobarbital and 5,6-benzoflavone (10%), Method: Preincubation) was “inactive; negative” and the mutagenic call (Test System: E. coli, Strain/Indicator: WP2uvrA/pKM101, Metabolic Activation: Rat, Liver, S9, Sodium phenobarbital and 5,6-benzoflavone (10%), Method: Preincubation) was “active; positive”. The mutagenic call (Test System: UDS RAT HEPATOCYTES, Strain/Indicator: THY INCORP, Metabolic Activation: NONE) was “inactive; negative”.
With `CCOCCOC(=O)/C=C/c1ccc(OC)cc1` the mutagenic call [11] was “inactive; negative”, the mutagenic call [3] was “inactive; negative” and the mutagenic call [12] was “inactive; negative”. For the same compound, the mutagenic call [13] was “inactive; negative”, the mutagenic call [4] was “inactive; negative” and the mutagenic call [14] was “inactive; negative”. The mutagenic call [15] was “inactive; negative”, the mutagenic call [16] was “inactive; negative” and the mutagenic call [17] was “inactive; negative”. For the same compound, the mutagenic call [18] was “inactive; negative”, the mutagenic call [19] was “inactive; negative” and the mutagenic call [20] was “inactive; negative”.
`CC\C=C/C=C\C=C/C=C\C=C/OCCC` was tested, and the mutagenic call [4] was “active; positive”.
For `CCCCCCCCCCCCS`, the mutagenic call [11] was “inactive; negative”, the mutagenic call (Test System: AMES SALMONELLA TYPHIMURIUM, Strain/Indicator: TA98, Metabolic Activation: HAMSTER, LIVER, S-9, AROCLOR 1254, Method: STANDARD PLATE) was “inactive; negative” and the mutagenic call [3] was “inactive; negative”. The mutagenic call [1] was “inactive; negative”, the mutagenic call [12] was “inactive; negative” and the mutagenic call [5] was “inactive; negative”. The mutagenic call [13] was “inactive; negative”, the mutagenic call (Test System: AMES SALMONELLA TYPHIMURIUM, Strain/Indicator: TA100, Metabolic Activation: HAMSTER, LIVER, S-9, AROCLOR 1254, Method: STANDARD PLATE) was “inactive; negative” and the mutagenic call [4] was “inactive; negative”. The mutagenic call [2] was “inactive; negative”, the mutagenic call [14] was “inactive; negative” and the mutagenic call [6] was “inactive; negative”. For the same compound, the mutagenic call [15] was “inactive; negative”, the mutagenic call (Test System: AMES SALMONELLA TYPHIMURIUM, Strain/Indicator: TA1535, Metabolic Activation: HAMSTER, LIVER, S-9, AROCLOR 1254, Method: STANDARD PLATE) was “inactive; negative” and the mutagenic call [16] was “inactive; negative”. For the same compound, the mutagenic call [7] was “inactive; negative”, the mutagenic call [17] was “inactive; negative” and the mutagenic call [8] was “inactive; negative”. The mutagenic call [18] was “inactive; negative”, the mutagenic call (Test System: AMES SALMONELLA TYPHIMURIUM, Strain/Indicator: TA1537, Metabolic Activation: HAMSTER, LIVER, S-9, AROCLOR 1254, Method: STANDARD PLATE) was “inactive; negative” and the mutagenic call [19] was “inactive; negative”. The mutagenic call (Test System: AMES SALMONELLA TYPHIMURIUM, Strain/Indicator: TA1537, Metabolic Activation: NONE, Method: STANDARD PLATE) was “inactive; negative”, the mutagenic call [20] was “inactive; negative” and the mutagenic call (Test System: AMES SALMONELLA TYPHIMURIUM, Strain/Indicator: TA1537, Metabolic Activation: RAT, LIVER, S-9, AROCLOR 1254, Method: STANDARD PLATE) was “inactive; negative”. For the same compound, the mutagenic call (Test System: AMES SALMONELLA TYPHIMURIUM, Strain/Indicator: TA1538, Metabolic Activation: HAMSTER, LIVER, S-9, AROCLOR 1254, Method: STANDARD PLATE) was “inactive; negative”, the mutagenic call [9] was “inactive; negative” and the mutagenic call [10] was “inactive; negative”. The mutagenic call (Test System: MOUSE LYMPHOMA, Strain/Indicator: L5178Y (TK+/TK-), Metabolic Activation: NONE, Method: SUSPENSION/PLATE) was “inactive; negative. reevaluation of results: negative” and the mutagenic call (Test System: MOUSE LYMPHOMA, Strain/Indicator: L5178Y (TK+/TK-), Metabolic Activation: RAT, LIVER, S-9, AROCLOR 1254, Method: SUSPENSION/PLATE) was “inactive; negative. reevaluation of results: negative”.
With `Cn1c2c3ccccc3nc-2cc2ccccc21` the mutagenic call (End Point: IN VITRO MICRONUCLEUS, Test System: CHINESE HAMSTER V-79-MZ, Metabolic Activation: NONE) was “active; positive” and the mutagenic call (Test System: CHINESE HAMSTER V-79-MZ, Strain/Indicator: V-79 MZ (HPRT)/6-THIOGUANINE, Metabolic Activation: NONE) was “inactive; negative”.
